Test results reported in patent US20250214965A1, “COMPOUND AS KIF18A INHIBITOR” (Hangzhou Innogate Pharma Co., Ltd., priority 2021, published 2025).
Like-named read-outs stand apart in the source and are kept apart here.

Legend:
OVCAR-3 = assay: Inhibition of proliferation of ovarian cancer cell line OVCAR-3 (CellTiter Glo); type: cell-based; settings: read-out: OVCAR-3 IC50
HCC1806 = assay: Inhibition of proliferation of breast cancer cell line HCC1806 (CellTiter Glo); type: cell-based; settings: read-out: HCC1806 IC50
[1] = Pharmacokinetic study in rats
Procedure: (§1) Instruments: XEVO TQ-S LC/MS instrument was produced by Waters. All measurement data were collected and processed by Masslynx V4.1 software, and the data were calculated and processed by Microsoft Excel. The statistical moment method of WinNonLin 8.0 software was used to calculate the pharmacokinetic parameters. These mainly include kinetic parameters Tmax, T1/2, Cmax, AUC0-24h etc. Column: ACQUITY UPLC BEH C18 (2.1 mm×50 mm, 1.7 m); column temperature 40° C.; mobile phase A is water (0.1% formic acid), mobile phase B is acetonitrile, flow rate is 0.350 mL/min, gradient elution is adopted, the elution gradient is 0.50 min: 10% B; 1.50 min: 90% B; 2.50 min: 90% B; 2.51 min: 10% B; 3.50 min: stop. Injection volume: 1 μL.
(§2) Animals: 3 male SD rats with a weight range of 200-220 g were purchased and kept in the laboratory of the Experimental Animal Center for 2 days and then used. They were fasted for 12 hours predose and 4 hours after dosing. Drinking water was free during the test. After the rats were gavage, blood samples were taken according to the established time point.
(§3) Solvent: 0.4% ethanol+0.4% Tween80+99.2% (0.5% methylcellulose M450). Preparation of the solution for intragastrical administration: the compounds were accurately weighed and added to the solvent, and ultrasound was used at room temperature for 5 minutes to completely dissolve the drug, and a 0.3 mg/mL medicinal solution was prepared.
(§4) Pharmaceutical samples: Generally, multiple samples with similar structures (with a molecular weight difference of more than 2 units) are taken, accurately weighed, and administered together (cassette PK). In this way, multiple compounds can be screened at the same time and their oral absorption rates can be compared. A single administration was also used to study the pharmacokinetics of the drug sample in rats.
(§5) After intragastrical administration, blood was taken from the orbit at 0.25, 0.5, 1, 2, 4, 8, 10 and 24 hours. Then 50 μL of the plasma sample was taken and added 200 μL of acetonitrile (including internal standard control verapamil 2 ng/mL), vortexed for 3 min and centrifuged at 20000 rcf, 4° C. for 10 min. The supernatant plasma was used for LC-MS/MS analysis.
(§6) The compounds were accurately weighed to prepare different concentrations, and quantitative analysis on mass spectrometry was performed to establish a standard curve, and then the concentration of the above-mentioned compound in the plasma was tested to obtain its concentration at different time points. All measurement data were collected and processed by relevant software, and the statistical moment method was used to calculate the pharmacokinetic parameters (mainly including kinetic parameters Tmax, T1/2, Cmax, AUC0-24h etc).

KIF18A = KIF18A (Homo sapiens (Human), UniProt Q8NI77); assay: Inhibition of KIF18A enzyme activity (ADP-Glo); type: biochemical; settings: 60 min at 25° C.
Chain of KIF18A (Q8NI77 whole entry): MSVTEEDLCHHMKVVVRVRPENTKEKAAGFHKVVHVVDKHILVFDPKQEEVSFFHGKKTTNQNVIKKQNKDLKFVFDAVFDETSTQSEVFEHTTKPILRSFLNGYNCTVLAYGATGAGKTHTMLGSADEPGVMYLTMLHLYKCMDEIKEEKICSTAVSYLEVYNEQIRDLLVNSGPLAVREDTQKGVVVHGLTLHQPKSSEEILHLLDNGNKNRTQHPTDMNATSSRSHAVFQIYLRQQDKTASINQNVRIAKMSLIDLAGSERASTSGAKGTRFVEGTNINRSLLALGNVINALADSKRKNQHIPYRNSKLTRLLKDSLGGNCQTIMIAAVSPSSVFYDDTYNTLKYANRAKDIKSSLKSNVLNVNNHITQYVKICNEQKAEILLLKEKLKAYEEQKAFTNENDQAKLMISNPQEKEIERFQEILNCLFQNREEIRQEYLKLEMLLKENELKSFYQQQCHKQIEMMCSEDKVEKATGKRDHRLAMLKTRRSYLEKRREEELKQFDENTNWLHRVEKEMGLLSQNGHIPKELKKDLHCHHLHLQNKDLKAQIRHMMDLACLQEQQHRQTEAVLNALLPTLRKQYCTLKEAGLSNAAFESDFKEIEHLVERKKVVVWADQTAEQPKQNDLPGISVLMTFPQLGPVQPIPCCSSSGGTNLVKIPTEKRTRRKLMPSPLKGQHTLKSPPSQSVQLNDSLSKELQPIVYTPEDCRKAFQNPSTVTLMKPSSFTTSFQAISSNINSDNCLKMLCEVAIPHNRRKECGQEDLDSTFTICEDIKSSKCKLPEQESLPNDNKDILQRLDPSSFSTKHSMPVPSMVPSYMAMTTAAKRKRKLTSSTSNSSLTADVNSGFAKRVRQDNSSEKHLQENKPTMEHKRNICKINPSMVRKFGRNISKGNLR
Procedure: The ADP-Glo method was used to test the enzymatic activity of KIF18A. The compound was diluted 3-fold with DMSO at a starting concentration of 3000 nM, for a total of ten concentrations, and tested in duplicate. Echo was used to transfer 25 nL of the diluted compound to a 384-well plate, and 2.5 μL of enzyme working solution was added. Plate was centrifuged at 1000 rpm for 1 min, and incubated at 25° C. for 10 min. 2.5 μL of ATP and substrate solution was added to start the reaction, and plate was incubated at 25° C. for 60 min. 4 μL of ADP-Glo solution was added to the 384-well plate, and plate was incubated at 25° C. for 40 min. 8 μL of detection solution was added and incubated at 25° C. for 40 min, and BMG was used to read the […] value. Inhibition rate was calculate according to the following formula: Inhibition rate (%)=(DMSO well−compound well)/(DMSO well−blank control well)×100%. The IC50 value of each compound was analyzed using the nonlinear regression method of XLFit 5.5.0 software. The formula is: Y=Bottom+(Top−Bottom)/(1+10^((Log IC50−X)*HillSlope)).

HCC1954 = assay: Inhibition of proliferation of breast cancer cell line HCC1954 (CellTiter Glo); type: cell-based; settings: HCC1954 cells, 96 hours
[2] = rat, in vivo, po, 3 mg/kg
Procedure: as §1, §2, §3, §4, §5, §6

[3] = Homo sapiens, OVCAR-3 cells, 96 hours, CellTiter Glo
[4] = Homo sapiens, HCC1806 cells, 96 hours, CellTiter Glo
[5] = male, SD, rat, plasma, po, 3 mg/kg

Cc1cc(NC(=O)c2ccc(NS(=O)(=O)C3(CO)CC3)cc2N2CCC3(CC2)CC3)nc(N2CCC(=C(F)F)CC2)n1 [Compound 13]
IC50 (OVCAR-3; [3]): < 500 nM | IC50 (HCC1806; [4]): < 500 nM

CC(C)(C)NS(=O)(=O)c1cccc(NC(=O)c2ccc(NS(=O)(=O)C3(C)CC3)cc2N2CCC(=C(F)F)CC2)c1 [Compound 39]
IC50 (OVCAR-3; [3]): < 50 nM

CC(C)(C)NS(=O)(=O)c1cccc(NC(=O)c2ccc(S(=O)(=O)C3COC3)cc2N2CCC(=C(F)F)CC2)c1 [Compound 73]
IC50 (OVCAR-3; [3]): < 200 nM | IC50 (HCC1806; [4]): < 500 nM

CC(C)(C)NS(=O)(=O)c1cccc(NC(=O)c2ccc(NS(=O)(=O)CCO)cc2N2CCC(=C(F)F)CC2)c1 [Compound 41]
IC50 (OVCAR-3; [3]): < 50 nM

Cc1cc(NC(=O)c2ccc(NS(=O)(=O)C(C)CO)cc2N2CCC3(CC2)CC3)nc(N2CCC(=C(F)F)CC2)n1 (stereo not shown) [Compound 3C]
IC50 (OVCAR-3; [3]): < 200 nM | IC50 (HCC1806; [4]): < 500 nM

Cc1cc(NC(=O)c2ccc(NS(=O)(=O)[C@H](C)CO)cc2N2CCC(=C(F)F)CC2)nc(N2CCC(F)(F)CC2)c1 [Compound 82]
AUC(0-t) [1, 5]: 4520 ng·h/mL | Cmax [1, 5]: 363 ng/mL | Tmax [1, 5]: 4.67 h | half-life [1, 5]: 5.01 h

Cc1cc(NC(=O)c2ccc(NS(=O)(=O)C(C)CO)cc2N2CCC(=C(F)F)CC2)nc(N2CCC(F)(F)CC2)n1 (stereo not shown) [Compound 52]
IC50 (OVCAR-3; [3]): < 50 nM | IC50 (HCC1806; [4]): < 100 nM

Cc1cc(NC(=O)c2ccc(NS(=O)(=O)C(C)(C)CO)cc2N2CCC(=C(F)F)CC2)nc(N2CCC(F)(F)CC2)n1 [Compound 60]
IC50 (KIF18A): < 150 nM | IC50 (OVCAR-3): < 50 nM | IC50 (HCC1806): < 200 nM | IC50 (HCC1954): < 75 nM | AUC0-24 h ([1]; male SD rats, oral 3 mg/kg): 1330.47 ng·h/mL | Cmax ([1]; male SD rats, oral 3 mg/kg): 90.70 ng/mL | T1/2 ([1]; male SD rats, oral 3 mg/kg): 7.47 h | Tmax ([1]; male SD rats, oral 3 mg/kg): 6.67 h

Cc1cc(NC(=O)c2ccc(NS(=O)(=O)CCO)cc2N2CCC(=C(F)F)CC2)nc(N2CCC(F)(F)CC2)c1F [Compound 79]
IC50 (OVCAR-3; [3]): < 50 nM | AUC(0-t) [1, 5]: 2240 ng·h/mL | Cmax [1, 5]: 160 ng/mL | Tmax [1, 5]: 5.33 h | half-life [1, 5]: 7.61 h

C[C@@H]1CN(c2cccc(NC(=O)c3ccc(NS(=O)(=O)C4(CN5CCC5)CC4)cc3N3CCC4(CC3)CC4)n2)CCO1 [Compound 30]
IC50 (OVCAR-3; [3]): < 500 nM | IC50 (HCC1806; [4]): < 1000 nM

C=C(C)C1CCN(c2cc(NS(=O)(=O)C3(C)CC3)ccc2C(=O)Nc2cccc(S(=O)(=O)NC(C)(C)C)c2)CC1 [Compound 36]
IC50 (OVCAR-3; [3]): < 200 nM

Cc1cc(NC(=O)c2ccc(NS(=O)(=O)C(F)CO)cc2N2CCC(=C(F)F)CC2)nc(N2CCC(F)(F)CC2)n1 (stereo not shown) [Compound 72]
IC50 (OVCAR-3; [3]): < 200 nM | IC50 (HCC1806; [4]): < 500 nM

Cc1cc(NC(=O)c2ccc(NS(=O)(=O)CCO)cc2N2CCC(=C(F)F)CC2)nc(N2CCC(F)(F)CC2)c1 [Compound 48]
IC50 (KIF18A): < 50 nM | IC50 (OVCAR-3): < 50 nM | IC50 (HCC1806): < 50 nM | IC50 (HCC1954): < 50 nM | AUC0-24 h [2]: 1724.65 ng·h/mL | Cmax [2]: 153.57 ng/mL | T1/2 [2]: 4.91 h | Tmax [2]: 4.00 h

CC(C)(C)NS(=O)(=O)c1cccc(NC(=O)c2ccc(S(=O)(=O)C3(C)COC3)cc2N2CCC(=C(F)F)CC2)c1 [Compound 67]
IC50 (OVCAR-3; [3]): < 500 nM | IC50 (HCC1806; [4]): < 1000 nM

Cc1nc(N2CCC(F)(F)CC2)nc(NC(=O)c2ccc(NS(=O)(=O)CCO)cc2N2CCC(=C(F)F)CC2)c1F [Compound 74]
IC50 (OVCAR-3; [3]): < 1000 nM | IC50 (HCC1954; Homo sapiens): < 1000 nM

O=C(Nc1cccc(N2CC(F)(F)C2)n1)c1ccc(NS(=O)(=O)C2(CN3CCC3)CC2)cc1N1CCC2(CC1)CC2 [Compound 29]
IC50 (OVCAR-3; Homo sapiens, OVCAR-3, 96 h): < 500 nM | IC50 (HCC1806; Homo sapiens, HCC1806, 96 h): < 1000 nM

CC(C)(C)NS(=O)(=O)c1cccc(NC(=O)c2ccc(NC(C)(C)CO)nc2N2CCC(=C(F)F)CC2)c1 [Compound 62]
IC50 (OVCAR-3; [3]): < 200 nM | IC50 (HCC1806; [4]): < 500 nM

Cc1cc(NC(=O)c2ccc(NS(=O)(=O)CCO)nc2N2CCC(=C(F)F)CC2)nc(N2CCC(F)(F)CC2)n1 [Compound 65]
IC50 (OVCAR-3; [3]): < 500 nM | IC50 (HCC1806; [4]): < 1000 nM

Cc1cc(NC(=O)c2ccc(NS(=O)(=O)C3(CN4CC(O)C4)CC3)cc2N2CCC3(CC2)CC3)nc(N2CCC(F)(F)CC2)n1 [Compound 20]
IC50 (OVCAR-3; [3]): < 1000 nM | IC50 (HCC1806; [4]): < 1000 nM

Cc1cc(NC(=O)c2ccc(NS(=O)(=O)CCO)cc2N2CCC(=C(F)F)CC2)cc(N2CCC(F)(F)CC2)c1 [Compound 56]
IC50 (KIF18A): < 50 nM | IC50 (OVCAR-3): < 50 nM | IC50 (HCC1806): < 100 nM | IC50 (HCC1954): < 75 nM | AUC0-24 h ([1]; male SD rats, oral 3 mg/kg): 2051.53 ng·h/mL | Cmax ([1]; male SD rats, oral 3 mg/kg): 175.28 ng/mL | T1/2 ([1]; male SD rats, oral 3 mg/kg): 3.83 h | Tmax ([1]; male SD rats, oral 3 mg/kg): 4.00 h

CC(C)=C1CCN(c2cc(NS(=O)(=O)CCO)ccc2C(=O)Nc2cc(C)nc(N3CCC(F)(F)CC3)n2)CC1 [Compound 35]
IC50 (OVCAR-3; [3]): < 500 nM

Cc1cc(NC(=O)c2ccc(NS(=O)(=O)[C@@H](C)CO)cc2N2CCC(=C(F)F)CC2)nc(N2CCC(F)(F)CC2)n1 [Compound 69]
IC50 (OVCAR-3; [3]): < 100 nM | IC50 (HCC1806; [4]): < 200 nM | IC50 (HCC1954; Homo sapiens): < 200 nM

C[C@@H]1CN(c2cccc(NC(=O)c3ccc(NS(=O)(=O)CCO)cc3N3CCC(=C(F)F)CC3)n2)CCO1 [Compound 53]
IC50 (OVCAR-3; [3]): < 50 nM | IC50 (HCC1954; Homo sapiens): < 50 nM

Cc1cc(NC(=O)c2ccc(NS(=O)(=O)C3CC(O)C3)cc2N2CCC3(CC2)CC3)nc(N2CCC(F)(F)CC2)n1 (stereo not shown) [Compound 47]
IC50 (OVCAR-3; [3]): < 50 nM | IC50 (HCC1954; Homo sapiens): < 75 nM

Cc1cc(NC(=O)c2ccc(NS(=O)(=O)C3(CO)CC3)cc2N2CCC(=C(F)F)CC2)nc(N2CCC(F)(F)CC2)n1 [Compound 51]
IC50 (OVCAR-3; [3]): < 50 nM | IC50 (HCC1806; [4]): < 200 nM | IC50 (HCC1954; Homo sapiens): < 100 nM | AUC(0-t) [1, 5]: 424 ng·h/mL | Cmax [1, 5]: 43.3 ng/mL | Tmax [1, 5]: 4.67 h | half-life [1, 5]: 6.68 h

C[C@@H]1CN(c2cccc(NC(=O)c3ccc(NS(=O)(=O)C4(CN5CC(O)C5)CC4)cc3N3CCC4(CC3)CC4)n2)CCO1 [Compound 32]
IC50 (OVCAR-3; [3]): < 1500 nM | IC50 (HCC1806; [4]): < 1000 nM

CC(C)=C1CCN(c2nc(NCCO)ccc2C(=O)Nc2cccc(S(=O)(=O)C3CCCC3)c2)CC1 [Compound 44]
IC50 (OVCAR-3; [3]): < 2000 nM

N#Cc1ccc(NC(=O)c2ccc(NS(=O)(=O)CCO)cc2N2CCC(=C(F)F)CC2)nc1N1CCC(F)(F)CC1 [Compound 77]
IC50 (OVCAR-3; [3]): < 50 nM

CC(C)(CO)Nc1ccc(C(=O)Nc2cccc(S(=O)(=O)C3CCCC3)c2)c(N2CCC(=C(F)F)CC2)n1 [Compound 59]
IC50 (OVCAR-3; [3]): < 75 nM | IC50 (HCC1806; [4]): < 200 nM | IC50 (HCC1954; Homo sapiens): < 75 nM

CCc1cc(NC(=O)c2ccc(NS(=O)(=O)CCO)cc2N2CCC(=C(F)F)CC2)nc(N2CCC(F)(F)CC2)n1 [Compound 75]
IC50 (OVCAR-3; [3]): < 200 nM

CP(=O)(c1cccc(NC(=O)c2ccc(NCCO)nc2N2CCC3(CC2)CC3)c1)C1CCCC1 (stereo not shown) [Compound 46]
IC50 (OVCAR-3; [3]): < 1500 nM

Cc1cc(NC(=O)c2ccc(NS(=O)(=O)[C@H](C)CO)cc2N2CCC(=C(F)F)CC2)nc(N2CCC(F)(F)CC2)n1 [Compound 68]
IC50 (OVCAR-3; [3]): < 50 nM | IC50 (HCC1806; [4]): < 100 nM | IC50 (HCC1954; Homo sapiens): < 50 nM | AUC(0-t) [1, 5]: 3330 ng·h/mL | Cmax [1, 5]: 227 ng/mL | Tmax [1, 5]: 6.67 h | half-life [1, 5]: 7.18 h

O=C(Nc1cccc(N2CCC(F)(F)CC2)n1)c1ccc(NS(=O)(=O)CCO)cc1N1CCC(=C(F)F)CC1 [Compound 40]
IC50 (OVCAR-3; [3]): < 50 nM

Cc1cc(NC(=O)c2ccc(NS(=O)(=O)CCO)cc2N2CCC(=C(F)F)CC2)nc(N2CCC(F)(F)CC2)n1 [Compound 33]
IC50 (KIF18A): < 50 nM | IC50 (OVCAR-3): < 75 nM | IC50 (HCC1806): < 200 nM | IC50 (HCC1954): < 75 nM | AUC0-24 h [2]: 10273.88 ng·h/mL | Cmax [2]: 717.6 ng/mL | T1/2 [2]: 7.05 h | Tmax [2]: 8.00 h

CC(C)(C)NS(=O)(=O)c1cccc(NC(=O)c2ccc(S(=O)(=O)NC(C)(C)C)cc2N2CCC(=C(F)F)CC2)c1 [Compound 63]
IC50 (OVCAR-3; [3]): < 50 nM | IC50 (HCC1806; [4]): < 75 nM | IC50 (HCC1954; Homo sapiens): < 50 nM
